Experimental data published in patent US8569264B2, “Antibacterial 4,5-substituted aminoglycoside analogs having multiple substituents” (ISIS Pharmaceuticals, Inc., priority 2005, dated 2013).
Marks after values point to notes of the source that are not given here.

What was measured:
[1] = system: gentamicin sensitive Acinetobacter baumannii #2 from Walter Reed; experiment: MIC, A. baumannii WReed 2; format: cell-based; conditions: Example 110
Experimental: (§1) The MIC assays are carried out in 150 μL volume in duplicate in 96-well clear flat-bottom plates. The bacterial suspension from an overnight culture growth in appropriate medium is added to a solution of test compound in 4% DMSO in water. Final bacterial inoculum is approximately 10^5-10^6 CFU/well. […] Both ampicillin and tetracycline are used as antibiotic-positive controls in each screening assay for S. pyogenes, E. coli imp-, E. coli, S. aureus, E. faecalis, K. pneumoniae and P. vulgaris. Ciprofloxacin is used as an antibiotic positive control in each screening assay for P. aeruginosa.
(§2) The following compounds were prepared using methods illustrated in the previous examples. The compounds were also examined in standard bacterial assays against E. Coli, S. Aureus, P. aurginosa, K. pneumoniae, P. vulgaris, and A. baumannii to determine activities. Each of the bacterial cultures that are available from ATCC (www.atcc.org) is identified by its ATCC number. A. baumannii is gentamicin sensitive Acinetobacter baumannii #2 from Walter Reed.

[2] = system: S. aureus ATCC 13709; experiment: MIC, S. aureus ATCC 13709; format: cell-based; conditions: Example 110
Experimental: as §1, §2

[3] = system: P. aurginosa ATCC 29248; experiment: MIC, P. aurginosa ATCC 29248; format: cell-based; conditions: Example 110
Experimental: as §1, §2

[4] = system: K. pneumoniae ATCC 10031; experiment: MIC, K. pneumoniae ATCC 10031; format: cell-based; conditions: Example 110
Experimental: as §1, §2

[5] = system: P. aurginosa ATCC 25416; experiment: MIC, P. aurginosa ATCC 25416; format: cell-based; conditions: Example 110
Experimental: as §1, §2

[6] = system: E. coli ATCC 25922; experiment: MIC, E. coli ATCC 25922; format: cell-based; conditions: Example 110
Experimental: as §1, §2

[7] = system: P. vulgaris ATCC 8427; experiment: MIC, P. vulgaris ATCC 8427; format: cell-based; conditions: Example 110
Experimental: as §1, §2

[8] = system: Staphylococcus aureus (Smith Strain ATCC 13709); experiment: Staphylococcus aureus mouse protection assay; format: in vivo, mice; conditions: for # Dead mice/Total mice in group: Staph Conc. 10^6, 10% Mucin, the 14th table
Experimental: Two of the novel aminoglycoside compounds of the invention were examined for their anitbacterial activity against staphylococcus aureus. Mice were fed with autoclaved commercial food pellets and sterile water ad libitum. Animals were inoculated intraperitoneally with 0.5 mL/mouse of the indicated concentration of S. aureus (ATCC 13709) containing 10% mucin. There were 10 mice in each treatment group and compounds were administered subcutaneously one and 3 hour after infection. Compounds 15a (R4═R5═CH3) and 15j (R4═H, R5═(CH2)2C6H5)) were used at 75 mg/kg, 37.5 mg/kg, 18.8 mg/kg, 9.4 mg/kg, 4.7 mg/kg, 2.3 mg/kg, 1.17 mg/kg and 0.5 mg/kg. Amakacin, paromomycin and neomycin were used as the positive controls at concentrations of 2 mg/kg, 1 mg/kg and 0.5 mg/kg.
Test compound was administered as an aqueous buffer solution (phosphate buffered saline (PBS), pH=7.4).

[9] = system: E. Coli; experiment: MIC, E. Coli; format: cell-based; conditions: Example 105
Experimental: as §1

[10] = system: S. Aureus; experiment: MIC, S. Aureus; format: cell-based; conditions: Example 105
Experimental: as §1

[11] = target: 18S ribosomal subunit RNA target; experiment: Mass spectrometry based binding assay (FTICR), 18S; conditions: FTICR mass spectrometry; Example 105
Experimental: (§3) In a typical experiment, 10 μL of an aqueous solution containing 100 mM ammonium acetate buffer, 2.5 or 5 μM of each RNA, and 33% isopropyl alcohol (to aid ion desolvation) was prepared with different concentrations of each ligand or ligand mixture Samples were introduced into the electrospray ionization source (negative ionization mode) at 1 μL/min and ions were stored for 1 sec in an RF-only hexapole following desolvation. The abundances were integrated from the respective ions for free RNA and the ligand-RNA complex. The primary (1:1 RNA:ligand) and secondary (1:2 complex, if observed). […] The peak ratios were measured at each concentration, then a plot of complex/free RNA versus concentration of ligand added was fitted to a second (or higher) order binding polynomial to determine the KD.

[12] = system: E. coli S30 bacterial extract (pBestLuc firefly luciferase reporter); experiment: Coupled bacterial transcription/translation assay; format: biochemical; conditions: Example 105; read-out: Trans/Trans IC50
Experimental: The DNA template, pBestLuc™ (Promega), is a plasmid containing a reporter gene for firefly luciferase fused to a strong tac promoter and ribosome binding site. Messenger RNA from 1 μg pBestLuc is transcribed and translated in E. coli S30 bacterial extract in the presence or absence of test compound. Compounds are tested in a black 96 well microtiter plate with an assay volume of 35 μL. […] The transcription/translation reaction is incubated for 35 minutes at 37° C. followed by detection of functional luciferase with the addition of 30 μL LucLite™ (Packard). Light output is quantitated on a Packard TopCount.

[13] = target: 16S ribosomal subunit RNA target; experiment: Mass spectrometry based binding assay (FTICR), 16S; conditions: FTICR mass spectrometry; run at 100 nM RNA; Example 105
Experimental: as §3, with “[…],” for “2.5 or 5 μM of each RNA,”

| SMILES | MIC A. baumannii WReed 2 [1] | MIC S. aureus ATCC 13709 [2] [µM] | MIC P. aurginosa ATCC 29248 [3] [µM] | MIC K. pneumoniae ATCC 10031 [4] [µM] | MIC P. aurginosa ATCC 25416 [5] [µM] | MIC E. coli ATCC 25922 [6] [µM] | MIC P. vulgaris ATCC 8427 [7] [µM] | further results |
| --- | --- | --- | --- | --- | --- | --- | --- | --- |
| NCC1OC(OC2C(CO)OC(OC3C(O)C(N)CC(N)C3OC3OC(CO)C(O)C(O)C3N)C2OCCNCCN2C(=O)c3cccc4cccc(c34)C2=O)C(N)C(O)C1O (stereo not shown) [Compound 9ae] | 20 to 40 µM | 10 to 20 | >40 | 5 to 10 | 5 to 10 | >40 | 20 to 40 | – |
| NCC1OC(OC2C(CO)OC(OC3C(O)C(N)CC(N)C3OC3OC(CO)C(O)C(O)C3N)C2OCCN(CCCc2ccccc2)CCc2ccccc2)C(N)C(O)C1O (stereo not shown) [Compound 9ag] | 10 to 20 µM | 0.6 to 1.2 | >40 | 2.5 to 5 | 10 to 20 | 10 to 20 | 10 to 20 | – |
| COc1ccc(CCNCCOC2C(OC3C(O)C(N)CC(N)C3OC3OC(CO)C(O)C(O)C3N)OC(CO)C2OC2OC(CN)C(O)C(O)C2N)cc1 (stereo not shown) [Compound 9aj] | 2.5-5^ uM | <0.6 | >40 | 1.3 to 2.5 | >40 | 5 to 10 | 5 to 10 | – |
| NCC1OC(OC2C(CO)OC(OC3C(O)C(N)CC(N)C3OC3OC(CO)C(O)C(O)C3N)C2OCCNCc2cccnc2)C(N)C(O)C1O (stereo not shown) [Compound 9b] | – | – | – | – | – | – | – | # Dead mice/Total mice in group ([8]; 0.1 mg/kg in PBS pH=7.4): 7/10 (10% Mucin); # Dead mice/Total mice in group ([8]; 0.5 mg/kg in PBS pH=7.4): 3/10 (10% Mucin); # Dead mice/Total mice in group ([8]; 1 mg/kg in PBS pH=7.4): 0/10 (10% Mucin); # Dead mice/Total mice in group ([8]; 2 mg/kg in PBS pH=7.4): 0/10 (10% Mucin); # Dead mice/Total mice in group ([8]; 4.5 mg/kg in PBS pH=7.4): 0/10 (10% Mucin); # Dead mice/Total mice in group ([8]; 9 mg/kg in PBS pH=7.4): 0/10 (10% Mucin); # Dead mice/Total mice in group ([8]; 18 mg/kg in PBS pH=7.4): 0/10 (10% Mucin); # Dead mice/Total mice in group ([8]; 37 mg/kg in PBS pH=7.4): 0/10 (10% Mucin); # Dead mice/Total mice in group ([8]; 75 mg/kg in PBS pH=7.4): 0/10 (10% Mucin); # Dead mice/Total mice in group ([8]; […] in PBS pH=7.4): 6/10 (10% Mucin); prevention of lethal bacterial infections in mice ([8]; result in words, summary of the 14th table): effective at preventing lethal bacterial infections in mice; MIC E. Coli. [9]: 6-12^b uM; MIC S. Aureus [10]: 0.6-1^ uM; Kd [11]: 9400 nM; IC50 [12]: 100 nM; Kd [13]: 900 nM |
